Patent publication US20160362744A1, “Biomarkers of Mineralocorticoid Receptor Activation” (INSERM (Institut National de la Sante et de la Recherche …, priority 2008, published 2016)
Entries after “also recorded” stand apart in the source; their conditions may differ.

Experiments:
[1] = biological target: T1, rat MR (Rattus norvegicus, UniProt P22199); assay: Expression of NGAL mRNA (Q-PCR) in rat cardiomyocyte H9C2 cells stably expressing rat MR; format: cell-based; settings: for Lipocalin2/NGAL expression, time-course: 10^−8M aldosterone
T1 construct: expressed in transfected cells; host or cells: rat H9C2 cardiomyocyte cells (H9-C2/MR)
T1 sequence (P22199 1-981): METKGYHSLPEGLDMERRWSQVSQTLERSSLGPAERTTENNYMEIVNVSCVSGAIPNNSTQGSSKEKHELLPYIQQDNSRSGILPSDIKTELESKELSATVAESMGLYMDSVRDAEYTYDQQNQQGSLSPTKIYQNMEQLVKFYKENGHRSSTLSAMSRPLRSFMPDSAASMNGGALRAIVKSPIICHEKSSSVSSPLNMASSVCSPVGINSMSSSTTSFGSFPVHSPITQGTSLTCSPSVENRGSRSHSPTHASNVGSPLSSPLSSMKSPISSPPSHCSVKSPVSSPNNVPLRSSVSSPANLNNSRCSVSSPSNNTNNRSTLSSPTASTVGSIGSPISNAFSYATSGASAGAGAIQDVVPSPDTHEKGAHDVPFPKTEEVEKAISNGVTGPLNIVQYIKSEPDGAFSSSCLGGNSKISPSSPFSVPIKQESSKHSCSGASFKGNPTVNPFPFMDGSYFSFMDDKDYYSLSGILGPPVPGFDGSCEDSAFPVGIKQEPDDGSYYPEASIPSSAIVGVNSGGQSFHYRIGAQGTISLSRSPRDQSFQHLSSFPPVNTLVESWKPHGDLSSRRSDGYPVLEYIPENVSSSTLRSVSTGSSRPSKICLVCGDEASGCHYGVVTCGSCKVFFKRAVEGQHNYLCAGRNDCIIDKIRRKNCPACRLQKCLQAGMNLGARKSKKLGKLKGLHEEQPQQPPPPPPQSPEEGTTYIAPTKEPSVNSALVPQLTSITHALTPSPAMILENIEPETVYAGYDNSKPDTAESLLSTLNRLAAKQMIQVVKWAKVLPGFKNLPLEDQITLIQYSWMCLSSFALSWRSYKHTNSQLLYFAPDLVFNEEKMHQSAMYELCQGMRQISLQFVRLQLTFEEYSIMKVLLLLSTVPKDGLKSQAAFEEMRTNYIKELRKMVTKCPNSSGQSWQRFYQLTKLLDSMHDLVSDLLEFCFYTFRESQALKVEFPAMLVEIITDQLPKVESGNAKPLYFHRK
Description: Expression of NGAL in a Cellular Model of Rat Cardiomyocyte (H9C2 Cells) Stably Overexpressing with Rat MR
(§1) Quantitative NGAL mRNA expression was analyzed by quantitative PCR (Q-PCR, Light Cycler, Biorad) using forward 5′-[…]-3′ (SEQ ID NO:3) and reverse 5′-[…]-3′ (SEQ ID NO:4) primers on 25 μl of RT-PCR (using the qPCR Core kit for Sybr Green I from Eurogentec) prepared using 2 μg DNA-free total RNA extracted from rat H9-C2/MR cells treated with various concentrations of aldosterone or 10^−8M corticosterone or 10^−6 M MR antagonist RU 28318 or GR antagonist RU 486, alone or in combination.

[2] = biological target: T1, rat MR; assay: Expression of Serpina3 mRNA (Q-PCR) in rat cardiomyocyte H9C2 cells stably overexpressing rat MR; format: cell-based; settings: for serpina3 induction, time course: Aldosterone 10 nM
Description: Expression of Serpina3 in a Cellular Model of Rat Cardiomyocyte (H9C2 Cells) Stably Overexpressing with Rat MR
as §1, with “Serpina3” for “NGAL”, “NO:7)” for “NO:3)”, “NO:8)” for “NO:4)”, “28318,” for “28318 or GR antagonist RU 486,”

[3] = biological target: T2, MR (Mus musculus, UniProt Q8VII8); assay: NGAL expression in uninephrectomized mice with aldosterone infusion and 1% salt (aldo/salt model); format: in vivo; settings: 3 weeks
T2 construct: from tissue; host or cells: living mice (heart, plasma)
T2 sequence (Q8VII8 1-978): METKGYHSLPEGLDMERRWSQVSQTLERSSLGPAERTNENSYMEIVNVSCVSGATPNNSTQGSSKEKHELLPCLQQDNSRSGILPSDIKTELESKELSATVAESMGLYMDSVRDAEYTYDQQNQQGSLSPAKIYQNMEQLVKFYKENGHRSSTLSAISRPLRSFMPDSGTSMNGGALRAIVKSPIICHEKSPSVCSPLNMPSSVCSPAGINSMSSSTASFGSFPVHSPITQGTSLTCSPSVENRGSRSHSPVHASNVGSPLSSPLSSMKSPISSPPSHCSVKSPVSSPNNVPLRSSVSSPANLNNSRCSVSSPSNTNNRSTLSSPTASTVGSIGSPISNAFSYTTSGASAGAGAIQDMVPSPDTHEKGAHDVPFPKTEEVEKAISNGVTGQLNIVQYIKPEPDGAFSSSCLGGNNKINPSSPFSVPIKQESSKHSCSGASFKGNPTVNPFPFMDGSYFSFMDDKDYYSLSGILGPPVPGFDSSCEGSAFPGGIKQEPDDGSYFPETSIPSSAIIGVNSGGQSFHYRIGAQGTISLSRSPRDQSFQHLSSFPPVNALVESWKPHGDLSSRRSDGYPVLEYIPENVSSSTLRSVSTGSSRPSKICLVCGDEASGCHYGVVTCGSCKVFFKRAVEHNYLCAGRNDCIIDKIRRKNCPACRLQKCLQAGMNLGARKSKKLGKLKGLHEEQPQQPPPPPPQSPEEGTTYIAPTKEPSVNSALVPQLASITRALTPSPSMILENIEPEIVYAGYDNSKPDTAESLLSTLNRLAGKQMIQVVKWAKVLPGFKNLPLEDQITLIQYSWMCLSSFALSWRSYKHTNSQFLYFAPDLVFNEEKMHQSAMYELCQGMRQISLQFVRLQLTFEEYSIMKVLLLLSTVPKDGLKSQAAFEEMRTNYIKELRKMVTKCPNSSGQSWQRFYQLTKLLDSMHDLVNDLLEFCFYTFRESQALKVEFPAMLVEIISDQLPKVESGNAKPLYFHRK
Description: Quantitative NGAL mRNA expression was analyzed by quantitative PCR (Q-PCR, Light Cycler, Biorad) using forward 5′-[…]-3′ (SEQ ID NO:1) and Reverse 5′-[…]-3′ (SEQ ID NO:2) primers on 25 μl of RT-PCR (using the qPCR Core kit for Sybr Green I from Eurogentec) prepared using 2 μg DNA-free total RNA extracted from the heart of one, two and three mo-old MR transgenic mice and compared to matched littermates, as well as two mo-old GR transgenic mice (and respective control littermates). Protein expression of NGAL was analyzed in cardiac protein extracts from two mo-old MR mice using a specific NGAL antibody (AF1857, R&D Systems). […]
Quantitative NGAL mRNA expression was also analyzed by Q-PCR in the heart of mice with uninephrectomy and treated with aldosterone infusion (60 μg/kg/j, 0.25 μl/h ALZET minipumps) and 1% salt in the drinking water for 3 weeks (as compared to uninephrectomized-only control mice), and in thoracic aorta from 9 months-old mice with conditional overexpression of the human MR in the endothelium only obtained after appropriate breeding of the MR transgenic mice described above with an endothelial-specific transactivator mice (provided by L. E. Benjamine, Harvard, USA) (Sun et al., 2005) that allowed conditional expression of hMR in the endothelium only. […]

[4] = biological target: T2, MR; assay: Plasma NGAL (ELISA) in db/db mouse model of type II diabetes treated with MR antagonist; format: in vivo, mice

**Q.** `CCC[C@@H]1CC2=CC(=O)CC[C@]2(C)[C@H]2CC[C@@]3(C)[C@@H](CC[C@@]3(O)CCC(=O)[O-])[C@H]12.[K+]` [RU 28318] was tested. Which “Effect on aldosterone-induced increase of Lipocalin2/NGAL expression” value ([1]; antagonist (10^−6 M) added to 10^−8M aldosterone) did it give?
**A.** prevented

**Q.** And the “Effect on corticosterone-induced increase of Lipocalin2/NGAL expression” value ([1]; antagonist (10^−6 M) with 10^−8M corticosterone)?
**A.** prevented

**Q.** What about the “Effect on corticosterone induction of SERPINA3 mRNA” value ([2]; H9C2/MR+ cells, MR antagonist with 10 nM corticosterone) of the same compound?
**A.** prevented

**Q.** What about the “Effect on aldosterone induction of SERPINA3 mRNA” value ([2]; H9C2/MR+ cells, in presence of MR antagonist with 1 nM aldosterone) of the same compound?
**A.** suppressed

**Q.** `C[C@]12CCC(=O)C=C1CC[C@@H]1[C@@H]2[C@@H](O)C[C@]2(C=O)[C@@H](C(=O)CO)CC[C@@H]12` [aldosterone] was tested. Which Lipocalin2/NGAL expression ([1]; 10^−8M aldosterone for 24 h) did it give?
**A.** increased

**Q.** What about the “Lipocalin2/NGAL expression, time-course” value ([1]; after 24 h) of the same compound?
**A.** induced

**Q.** What about the “Lipocalin2/NGAL expression, time-course” value ([1]; after 48 h) of the same compound?
**A.** remained sustained

**Q.** And the “Lipocalin2/NGAL expression, dose-response” value ([1]; increasing concentrations of aldosterone)?
**A.** stimulated by increasing concentrations

**Q.** And the “expression of serpina3 (in words)” value ([2]; H9C2/MR cells, 1 nM aldosterone for 24 h)?
**A.** increased

**Q.** And the “Serpina3 expression (in words)” value ([2]; H9C2/MR cells, 10 nM aldosterone, 24 h exposure)?
**A.** highly induced

**Q.** And the “serpina3 induction, time course” value ([2]; H9C2/MR cells, after 10 hours)?
**A.** induced

**Q.** And the “serpina3 induction, time course” value ([2]; H9C2/MR cells, after 24 h)?
**A.** 15 ×

**Q.** And the “Serpina3 induction, dose-response” value ([2]; H9C2/MR cells, aldosterone, starting with 1 nM)?
**A.** dose-dependent; also recorded: Concentration dependent induction

**Q.** What about the “SERPINA3 mRNA induction” value ([2]; H9C2/MR+ cells, aldosterone 1 nM for 24 hrs) of the same compound?
**A.** about 8 fold

**Q.** And the “Lipocalin2/NGAL expression in the heart” value ([3]; 60 μg/kg/j infusion, quantitative PCR)?
**A.** increased

**Q.** And the “plasma levels of lipocalin2/NGAL” value ([3]; ELISA)?
**A.** increased

**Q.** Which “Effect on plasma levels of lipocalin2/NGAL in control mice” value ([4]; control mice, 17 weeks treatment) does the source give for `C[C@]12CCC(=O)C=C1C=C[C@@H]1[C@@H]2CC[C@@]2(C)[C@H]1CC[C@@]2(O)CCC(=O)O` [canrenoate] here?
**A.** no effect

**Q.** What about the “Effect on increase in plasma levels of lipocalin2/NGAL in db/db mice” value ([4]; db/db mice, 17 weeks in vivo treatment, 100 mg/Kg/day in drinking water) of the same compound?
**A.** prevented

**Q.** For `C[C@]12C[C@H](O)[C@H]3[C@@H](CCC4=CC(=O)CC[C@@]43C)[C@@H]1CC[C@@H]2C(=O)CO` [corticosterone], which Lipocalin2/NGAL expression ([1]; 10^−8M corticosterone) is on record?
**A.** stimulated

**Q.** And the “SERPINA3 mRNA expression” value ([2]; H9C2/MR cells, 10 nM corticosterone, 24 h)?
**A.** increased
